Data on 20 molecules can be found in US20080234262A1 (Wyeth, priority 2007, published 2008).

By IC50 is commonly meant the midpoint of a concentration-inhibition curve.

In assay [1] the test system is breast line MDA468. As to the kind of experiment: In vitro cell culture growth assay (MTS), MDA468. Format: cell-based, human. As to conditions: MDA468 cells, three days after drug treatment. A digest of the protocol:
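MDA468 or LNCap cells received inhibitors one day after plating and were grown for three days. Viable cell density read by MTS conversion, absorbance 490 nm, expressed as percent of control growth versus vehicle-treated cells on the same plate.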

In assay [2] the test system is prostate line LNCap. As to the kind of experiment: In vitro cell culture growth assay (MTS), LNCap. Format: cell-based, human. Particulars: LNCap cells, three days after drug treatment.
Assay [3] addresses PI3K (Homo sapiens, UniProt P42336). As to the kind of experiment: Fluorescence polarization assay for PI3K.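 Note: PI3K kinase reaction on PIP2 with ATP, 30-60 min, product sensed by GST-GRP with red probe in fluorescence polarization (mP), controls without enzyme and at zero time.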 It is filed as biochemical. As to conditions: PI3Kα; read-out: PI3Kα IC50. On the technique in general: Fluorescence polarisation rises when a labelled molecule tumbles more slowly, as on binding a larger partner.

PI3K, sequence (P42336 whole entry): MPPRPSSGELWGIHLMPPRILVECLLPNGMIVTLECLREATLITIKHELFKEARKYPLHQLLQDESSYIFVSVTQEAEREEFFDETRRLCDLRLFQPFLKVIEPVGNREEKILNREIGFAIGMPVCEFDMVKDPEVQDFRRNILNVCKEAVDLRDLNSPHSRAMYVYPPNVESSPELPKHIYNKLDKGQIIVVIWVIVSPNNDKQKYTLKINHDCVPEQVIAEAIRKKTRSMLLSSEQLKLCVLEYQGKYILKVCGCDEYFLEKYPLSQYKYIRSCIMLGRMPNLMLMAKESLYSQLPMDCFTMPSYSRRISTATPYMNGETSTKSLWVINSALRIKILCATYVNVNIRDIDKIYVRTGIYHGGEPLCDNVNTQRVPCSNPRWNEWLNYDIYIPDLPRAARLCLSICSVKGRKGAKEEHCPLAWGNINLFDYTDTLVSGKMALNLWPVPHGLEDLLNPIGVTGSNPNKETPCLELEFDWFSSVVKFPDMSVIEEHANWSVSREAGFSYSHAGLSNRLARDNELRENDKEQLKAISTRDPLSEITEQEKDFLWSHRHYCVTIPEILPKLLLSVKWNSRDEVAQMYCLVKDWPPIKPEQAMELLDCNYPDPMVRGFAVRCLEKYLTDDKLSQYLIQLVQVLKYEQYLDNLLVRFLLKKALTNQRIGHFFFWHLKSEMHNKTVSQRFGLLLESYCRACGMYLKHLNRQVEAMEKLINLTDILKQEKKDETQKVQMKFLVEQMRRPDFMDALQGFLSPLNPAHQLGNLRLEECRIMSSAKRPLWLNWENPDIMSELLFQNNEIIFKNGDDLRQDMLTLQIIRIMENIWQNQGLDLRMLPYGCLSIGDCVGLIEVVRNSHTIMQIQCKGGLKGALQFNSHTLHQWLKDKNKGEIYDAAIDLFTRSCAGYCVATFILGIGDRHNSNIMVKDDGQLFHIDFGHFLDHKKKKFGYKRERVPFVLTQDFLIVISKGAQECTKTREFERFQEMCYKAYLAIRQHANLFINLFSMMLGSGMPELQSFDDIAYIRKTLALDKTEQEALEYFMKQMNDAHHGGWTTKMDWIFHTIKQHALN
PI3K, sequence (P27986 whole entry partner): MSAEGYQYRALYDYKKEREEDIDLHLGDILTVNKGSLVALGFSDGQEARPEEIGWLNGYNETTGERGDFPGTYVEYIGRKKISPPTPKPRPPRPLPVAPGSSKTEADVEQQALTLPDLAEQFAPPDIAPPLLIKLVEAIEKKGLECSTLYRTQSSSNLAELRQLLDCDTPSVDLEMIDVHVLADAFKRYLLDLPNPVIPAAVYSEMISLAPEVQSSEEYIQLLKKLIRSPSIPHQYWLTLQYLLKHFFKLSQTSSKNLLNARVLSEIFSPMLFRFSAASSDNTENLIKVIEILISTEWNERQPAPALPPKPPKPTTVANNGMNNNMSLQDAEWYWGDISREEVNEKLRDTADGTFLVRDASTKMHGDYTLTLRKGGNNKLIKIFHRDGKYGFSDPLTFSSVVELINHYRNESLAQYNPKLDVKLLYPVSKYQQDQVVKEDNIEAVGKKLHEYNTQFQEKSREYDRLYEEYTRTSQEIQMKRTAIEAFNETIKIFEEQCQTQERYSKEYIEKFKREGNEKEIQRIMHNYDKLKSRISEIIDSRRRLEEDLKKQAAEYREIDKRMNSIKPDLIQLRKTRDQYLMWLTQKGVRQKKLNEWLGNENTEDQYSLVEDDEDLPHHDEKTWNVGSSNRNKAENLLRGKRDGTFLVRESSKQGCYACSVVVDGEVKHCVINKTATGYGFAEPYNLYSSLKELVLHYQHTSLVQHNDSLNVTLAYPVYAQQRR

With `CNC(=O)Nc1ccc(-c2nc(N3CCOCC3)c3cnn(C4CCN(C(=O)c5ccccc5OC)CC4)c3n2)cc1` [Compound 611, 1-(4-{1-[1-(2-methoxybenzoyl)piperidin-4-yl]-4-morpholin-4-yl-1H-pyrazolo[3,4-d]pyrimidin-6-yl}phenyl)-3-methylurea], the IC50 is 330 nM in assay [1] (Homo sapiens, 72 h); less than 27 nM in assay [2] (Homo sapiens, LNCaP, 72 h); 82 nM in assay [3].
The matching figures for `CNCCNC(=O)Nc1ccc(-c2nc(N3CCOCC3)c3cnn(C4CCN(Cc5ccccc5)CC4)c3n2)cc1` [Compound 545, 1-{4-[1-(1-benzylpiperidin-4-yl)-4-morpholin-4-yl-1H-pyrazolo[3,4-d]pyrimidin-6-yl]phenyl}-3-[2-(methylamino)ethyl]urea]: 150 nM, 200 nM and 13 nM.
For `c1ccc(CN2CCC(n3ncc4c(N5CCOCC5)nc(-c5ccc(NCCN6CCOCC6)nc5)nc43)CC2)cc1` [Compound 193] the same measures were 12000 nM, 10000 nM and 8250 nM.
For `CNC(=O)Nc1ccc(-c2nc(N3CCOCC3)c3cnn(C4CCN(C(=O)c5cccnc5C)CC4)c3n2)cc1` [Example 329, 1-methyl-3-[4-(1-{1-[(2-methylpyridin-3-yl)carbonyl]piperidin-4-yl}-4-morpholin-4-yl-1H-pyrazolo[3,4-d]pyrimidin-6-yl)phenyl]urea] the same measures were 900 nM, 250 nM and 216 nM.
Take `Nc1ccc(-c2nc(N3CCOCC3)c3cnn(C4CCN(C(=O)c5cccnc5)CC4)c3n2)nc1` [Compound 679, 6-{4-morpholin-4-yl-1-[1-(pyridin-3-ylcarbonyl)piperidin-4-yl]-1H-pyrazolo[3,4-d]pyrimidin-6-yl}pyridin-3-amine]: the figures for the IC50 in assay [1], in assay [2] and in assay [3] were greater than 60000 nM, 45000 nM and 4040 nM, respectively.
As to `Clc1ncccc1CN1CCC(n2ncc3c(N4CCOCC4)nc(-c4ccc5[nH]ccc5c4)nc32)CC1` [Compound 175], the IC50 is 2000 nM in assay [1] (Homo sapiens, 72 h); 1100 nM in assay [2] (Homo sapiens, LNCaP, 72 h); 462 nM in assay [3].
The matching figures for `O=C(Nc1ccncc1)Nc1ccc(-c2nc(N3CCOCC3)c3cnn(C4CCN(CC(F)(F)F)CC4)c3n2)cc1` [Compound 786, 1-(4-{4-morpholin-4-yl-1-[1-(2,2,2-trifluoroethyl)piperidin-4-yl]-1H-pyrazolo[3,4-d]pyrimidin-6-yl}phenyl)-3-pyridin-4-ylurea]: 1100 nM, 80 nM and 48 nM.
On to `CNC(=O)Nc1ccc(-c2nc(N3CCOCC3)c3cnn(C4CCN(C(C)=O)CC4)c3n2)cc1` [Compound 716, 1-{4-[1-(1-acetylpiperidin-4-yl)-4-morpholin-4-yl-1H-pyrazolo[3,4-d]pyrimidin-6-yl]phenyl}-3-methylurea], for which the 50% inhibitory concentration (IC50) came to 1200 nM in assay [1], 800 nM in assay [2] and 224 nM in assay [3].
As to `C=CCONC(=O)Nc1ccc(-c2nc(N3CCOCC3)c3cnn(-c4ccccc4)c3n2)cc1` [Compound 296, 1-(allyloxy)-3-[4-(4-morpholin-4-yl-1-phenyl-1H-pyrazolo[3,4-d]pyrimidin-6-yl)phenyl]urea], the IC50 in assay [1] (Homo sapiens, 72 h) was found to be 60000 nM; in assay [2] (Homo sapiens, LNCaP, 72 h), 3000 nM; in assay [3], 896 nM.
Regarding `O=C(Nc1cccnc1)Nc1ccc(-c2nc(N3CCOCC3)c3cnn(C4CCN(Cc5cccnc5)CC4)c3n2)cc1F` [Compound 618, 1-(2-fluoro-4-{4-morpholin-4-yl-1-[1-(pyridin-3-ylmethyl)piperidin-4-yl]-1H-pyrazolo[3,4-d]pyrimidin-6-yl}phenyl)-3-pyridin-3-ylurea], the IC50 in assay [1] (Homo sapiens, 72 h) was determined as 150 nM; in assay [2] (Homo sapiens, LNCaP, 72 h) it was 40 nM; in assay [3] it was 54 nM.
For the molecule `COc1cccc(C(=O)Nc2ccc(-c3nc(N4CCOCC4)c4cnn(C5CCCCO5)c4n3)cc2)c1` (stereo not drawn) [Compound 273, 3-methoxy-N-{4-[4-morpholin-4-yl-1-(tetrahydro-2H-pyran-2-yl)-1H-pyrazolo[3,4-d]pyrimidin-6-yl]phenyl}benzamide], the IC50 in assay [1] (Homo sapiens, 72 h) came to 60000 nM; in assay [2] (Homo sapiens, LNCaP, 72 h), 1950 nM; in assay [3], 8320 nM.
Regarding `CNC(=O)Nc1ccc(-c2nc(N3CCOCC3)c3cnn(C4CCN(Cc5ccc(F)cc5)CC4)c3n2)cc1` [Compound 671, 1-(4-{1-[1-(4-fluorobenzyl)piperidin-4-yl]-4-morpholin-4-yl-1H-pyrazolo[3,4-d]pyrimidin-6-yl}phenyl)-3-methylurea], the IC50 in assay [1] is 210 nM; in assay [2], less than 27 nM; in assay [3], 34 nM.
With `O=C(Nc1ccccc1)Nc1ccc(-c2nc(N3CCOCC3)c3cnn(C4CCN(CCCCO)CC4)c3n2)cc1` [Compound 748, 1-(4-{1-[1-(4-hydroxybutyl)piperidin-4-yl]-4-morpholin-4-yl-1H-pyrazolo[3,4-d]pyrimidin-6-yl}phenyl)-3-phenylurea], the IC50 in assay [1] (Homo sapiens, 72 h) came to 390 nM; in assay [2] (Homo sapiens, LNCaP, 72 h), 80 nM; in assay [3], 53 nM.
For `O=C(Nc1ccc(-c2nc(N3CCOCC3)c3cn[nH]c3n2)cc1)c1cccnc1` [Compound 278, N-[4-(4-morpholin-4-yl-1H-pyrazolo[3,4-d]pyrimidin-6-yl)phenyl]nicotinamide] the same measures were 60000 nM, 7200 nM and 1170 nM.
Take `c1cc2cc(-c3nc(N4CCOCC4)c4cnn(C5CCCCO5)c4n3)ccc2[nH]1` (stereo not drawn) [Compound 928, 6-(1H-indol-5-yl)-4-morpholin-4-yl-1-(tetrahydro-2H-pyran-2-yl)-1H-pyrazolo[3,4-d]pyrimidine]: the values for the 50% inhibitory concentration (IC50) in assay [1], in assay [2] and in assay [3] were 1000 nM, 4200 nM and 2420 nM, respectively.
For `c1ccc(CN2CCC(n3ncc4c(N5CCOCC5)nc(-c5ccc6[nH]ccc6c5)nc43)CC2)cc1` [Example 45], the IC50 in assay [1] (Homo sapiens, 72 h) came to 1900 nM; in assay [2] (Homo sapiens, LNCaP, 72 h), 1400 nM; in assay [3] it was 1010 nM.
The matching figures for `C=CC(=O)Nc1ccc(-c2nc(N3CCOCC3)c3cn[nH]c3n2)cc1` [Compound 280, N-[4-(4-morpholin-4-yl-1H-pyrazolo[3,4-d]pyrimidin-6-yl)phenyl]acrylamide]: 7000 nM, 3400 nM and 601 nM.
The matching figures for `CN1CCC(C(=O)Nc2ccc(-c3nc(N4CCOCC4)c4cn[nH]c4n3)cc2)CC1` [Compound 284, 1-methyl-N-[4-(4-morpholin-4-yl-1H-pyrazolo[3,4-d]pyrimidin-6-yl)phenyl]piperidine-4-carboxamide]: 22000 nM, 5300 nM and 885 nM.
The matching figures for `CNC(=O)Nc1ccc(-c2nc(N3CCOCC3)c3cnn(C4CCN(C(=O)C(F)(F)F)CC4)c3n2)cc1` [Compound 763, 1-methyl-3-(4-{4-morpholin-4-yl-1-[1-(trifluoroacetyl)piperidin-4-yl]-1H-pyrazolo[3,4-d]pyrimidin-6-yl}phenyl)urea]: 500 nM, 270 nM and 154 nM.
On to `NNC(=O)Nc1ccc(-c2nc(N3CCOCC3)c3cnn(-c4ccccc4)c3n2)cc1` [Example 292, N-[4-(4-morpholin-4-yl-1-phenyl-1H-pyrazolo[3,4-d]pyrimidin-6-yl)phenyl]hydrazinecarboxamide], for which the IC50 in assay [1] (Homo sapiens, 72 h) is 8000 nM; in assay [2] (Homo sapiens, LNCaP, 72 h), 5200 nM; in assay [3], 171 nM.
